Read-outs that look alike come from different tables or passages of the source.
Assays:
Format in all cases: cell-based
Anabaena flos-aquae = test: Test tube culture inhibition of Anabaena flos-aquae, algal units/ml
Method: (§1) The algae used in this particular study were Chlamydomonas sp., Chlorella vulgaris, Anabaena sp., and Anabaena flos-aquae. Cultures of these algae were obtained, subcultured, and aqueous stocks of algae in 400 ml BBM were prepared and were used in log phase growth to innoculate test cultures.
(§2) The fatty acids which were tested as algal inhibitors were 9, 10-dihydroxystearic acid, linoleic acid, dodecanoic acid, and ricinoleic acid.
(§3) The test procedure involved placing 15 ml of BBM into 25 ml test tubes and innoculating them with 0.2 ml of algal stock solution. Twenty test tubes were innoculated with each algae. Four of these cultures were used with each concentration of each of the fatty acids. Four tubes from each set served as controls. Four concentrations of the fatty acids were used for each alga. The concentrations studied were 0.5 PPM, 1.0 PPM, 5.0 PPM, and 10.0 PPM.
(§4) Algal cultures were incubated under constant light of about 200 foot-candles and at a temperature of 68° F. Bold's Basal Medium (BBM), a modification of Bristol's solution was the medium in which all the cultures were grown. Bold's Basal Medium was prepared as follows:
(§5) Concentrations of fatty acids and the amount of stock solution used to prepare them were as follows:
(§6) Each test tube contained 15 ml sterile BBM. To this was added an aliquot of 0.2 of algal stock solution. Then the appropriate aliquots of warm acid stock solution were added to the appropriate number of culture tubes. These cultures were then incubated 5 days and at that point were counted. The same cultures were also counted after a 12 day growth period.
(§7) Stock solutions of the fatty acids to be tested as algal inhibitors were made from a stock solution of 5% sodium bicarbonate in glass-distilled water. The 5% sodium bicarbonate stock solution was made by dissolving 150 grams of sodium bicarbonate in 3000 ml of glass-distilled water. To insure complete dissolution, the solution was heated and stirred on a magnetic stirrer hot plate. The warm solution was used in preparing the fatty acid stock solutions.
(§8) Quanitative phytoplankton values were determined using the random field method. Filaments, colonies, and aggregations of cells were recorded as algal units. Each unit consisted of approximately 6 cells. Unicellular algae were counted as separate units. Algal counts were made from each of three duplicate cultures. One ml of the algal sample was placed in a Sedgwick-Rafter counting chamber, which is 50 mm long by 20 mm, wide by 1 mm deep. A Wild Heerbrugg, compound microscope with a Whipple grid eyepiece was used to determine quantitative algae values.
(§9) One ml of the algal solution was placed in the counting chamber, and two drops of methyl cellulose were added to minimize the movement of Chlamydomonas sp. Ten random fields were counted and all organisms within the Whipple grid field were enumerated.
(§10) The following formula used to calculate the numbers per milliliter from the field counts: [formula] where: C=number of organisms counted,
(§11) The area of the Whipple grid used was 0.46 mm^2, and the depth of a field was 1 mm. Results of the counts were reported as algal units/ml.

Chlamydomonas sp. = test: Test tube culture inhibition of Chlamydomonas sp., algal units/ml
Method: as §1, §2, §3, §4, §5, §6, §7, §8, §9, §10, §11

Anabaena sp. = test: Test tube culture inhibition of Anabaena sp., algal units/ml; conditions: for inhibition of growth at 10 ppm: read-out: reduction of algal units/ml, % of the control
Method: as §1, §2, §3, §4, §5, §6, §7, §8, §9, §10, §11

Chlorella vulgaris = test: Test tube culture inhibition of Chlorella vulgaris, algal units/ml
Method: as §1, §2, §3, §4, §5, §6, §7, §8, §9, §10, §11

SMILES | Algal units/ml (Anabaena flos-aquae; 5 days, 0.5 PPM) [units/ml] | Algal units/ml (Anabaena flos-aquae; 5 days, 1.0 PPM) [units/ml] | Algal units/ml (Anabaena flos-aquae; 5 days, 5.0 PPM) [units/ml] | Algal units/ml (Anabaena flos-aquae; 5 days, 10.0 PPM) [units/ml] | Algal units/ml (Anabaena flos-aquae; 12 days, 0.5 PPM) [units/ml] | Algal units/ml (Anabaena flos-aquae; 12 days, 1.0 PPM) [units/ml] | Algal units/ml (Anabaena flos-aquae; 12 days, 5.0 PPM) [units/ml] | Algal units/ml (Anabaena flos-aquae; 12 days, 10.0 PPM) [units/ml] | Algal units/ml (Chlamydomonas sp.; 5 days, 0.5 PPM) [units/ml] | Algal units/ml (Chlamydomonas sp.; 5 days, 1.0 PPM) [units/ml] | Algal units/ml (Chlamydomonas sp.; 5 days, 5.0 PPM) [units/ml] | Algal units/ml (Chlamydomonas sp.; 5 days, 10.0 PPM) [units/ml] | Algal units/ml (Chlamydomonas sp.; 12 days, 0.5 PPM) [units/ml] | Algal units/ml (Chlamydomonas sp.; 12 days, 1.0 PPM) [units/ml] | Algal units/ml (Chlamydomonas sp.; 12 days, 5.0 PPM) [units/ml] | Algal units/ml (Chlamydomonas sp.; 12 days, 10.0 PPM) [units/ml] | Algal units/ml (Anabaena sp.; 5 days, 0.5 PPM) [units/ml] | Algal units/ml (Anabaena sp.; 5 days, 1.0 PPM) [units/ml] | Algal units/ml (Anabaena sp.; 5 days, 5.0 PPM) [units/ml] | Algal units/ml (Anabaena sp.; 5 days, 10.0 PPM) [units/ml] | also measured
CCCCCCCCC(O)C(O)CCCCCCCC(=O)O (stereo not drawn) [9,10-Dihydroxystearic Acid, 9,10-dihydroxystearic acid] | 4348 | 4348 | 2174 | 217 | 18478 | 13478 | 9130 | 3261 | 10217 | 10436 | 11304 | 6522 | 47826 | 46739 | 50000 | 53478 | 34130 | 38043 | 30217 | 23261 | effect on algal growth (Anabaena flos-aquae; 5 days, 1.0 PPM and less): stimulated; effect on algal growth (Anabaena flos-aquae; 12 days, all concentrations): inhibitory effect; inhibition of growth at 10 ppm (Anabaena flos-aquae; Dolichospermum flos-aquae, 120 h, 5 days, 10 PPM, read-out: reduction of algal units/ml of the control): 90.9%; reduction of number of algal units/ml vs control (Chlamydomonas sp.; 5 days, 10 PPM): 5,000 algal units/ml; inhibition of growth at 10 ppm (Chlamydomonas sp.; Chlamydomonas, 120 h, 5 days, 10 PPM, read-out: reduction of number of algal units/ml, % of the control): 43.4%; inhibition (Anabaena sp.; 5 days, 10.0 PPM): effective as a inhibitor; inhibition of growth at 10 ppm (Anabaena sp.; 288 h, 12 days, 10 PPM): 16.6%; Algal units/ml (Anabaena sp.; 12 days, 0.5 PPM): 158043 units/ml; Algal units/ml (Anabaena sp.; 12 days, 1.0 PPM): 166739 units/ml; Algal units/ml (Anabaena sp.; 12 days, 5.0 PPM): 106957 units/ml; Algal units/ml (Anabaena sp.; 12 days, 10.0 PPM): 98473 units/ml
CCCCCCCCCCCC(=O)O [Dodecanoic Acid, dodecanoic acid] | 1087 | 2174 | 2714 | 2174 | 20435 | 7609 | 6739 | 6522 | 10652 | 10435 | 12609 | 11957 | 47174 | 48696 | 46304 | 50217 | 40435 | 32609 | 28261 | 28696 | effect on algal growth (Anabaena flos-aquae; 5 and 12 days, all concentrations): some inhibitory effects; inhibition of growth at 10 ppm (Anabaena sp.; 120 h): 22.7%; inhibition of growth at 10 ppm (Anabaena sp.; 288 h): 22.7%; Algal units/ml (Anabaena sp.; 12 days, 0.5 PPM): 139348 units/ml; Algal units/ml (Anabaena sp.; 12 days, 1.0 PPM): 135217 units/ml; Algal units/ml (Anabaena sp.; 12 days, 5.0 PPM): 92826 units/ml; Algal units/ml (Anabaena sp.; 12 days, 10.0 PPM): 91204 units/ml; Algal units/ml (Chlorella vulgaris; 5 days, 0.5 PPM): 8913 units/ml; Algal units/ml (Chlorella vulgaris; 5 days, 1.0 PPM): 11304 units/ml; Algal units/ml (Chlorella vulgaris; 5 days, 5.0 PPM): 11304 units/ml; Algal units/ml (Chlorella vulgaris; 5 days, 10.0 PPM): 10435 units/ml; Algal units/ml (Chlorella vulgaris; 12 days, 0.5 PPM): 217391 units/ml; Algal units/ml (Chlorella vulgaris; 12 days, 1.0 PPM): 217391 units/ml; Algal units/ml (Chlorella vulgaris; 12 days, 5.0 PPM): 217391 units/ml; Algal units/ml (Chlorella vulgaris; 12 days, 10.0 PPM): 217391 units/ml

Source: patent US4398937A, “Selective algaecides for control of cyanochloronta” (The University of Southern Mississippi, priority 1981, dated 1983)
